# Measured values published in patent US20200181104A1, “SSAO INHIBITORS AND USES THEREOF” (METACRINE, INC., priority 2018, published 2020).
# Where a name gives a salt, the structure may show the parent alone.
# Target: T1, Recombinant Human SSAO/VAP-1/AOC3 (Homo sapiens, UniProt Q16853)
# T1 construct: purchased R&D systems 3957-AO
# T1 sequence (Q16853 1-763): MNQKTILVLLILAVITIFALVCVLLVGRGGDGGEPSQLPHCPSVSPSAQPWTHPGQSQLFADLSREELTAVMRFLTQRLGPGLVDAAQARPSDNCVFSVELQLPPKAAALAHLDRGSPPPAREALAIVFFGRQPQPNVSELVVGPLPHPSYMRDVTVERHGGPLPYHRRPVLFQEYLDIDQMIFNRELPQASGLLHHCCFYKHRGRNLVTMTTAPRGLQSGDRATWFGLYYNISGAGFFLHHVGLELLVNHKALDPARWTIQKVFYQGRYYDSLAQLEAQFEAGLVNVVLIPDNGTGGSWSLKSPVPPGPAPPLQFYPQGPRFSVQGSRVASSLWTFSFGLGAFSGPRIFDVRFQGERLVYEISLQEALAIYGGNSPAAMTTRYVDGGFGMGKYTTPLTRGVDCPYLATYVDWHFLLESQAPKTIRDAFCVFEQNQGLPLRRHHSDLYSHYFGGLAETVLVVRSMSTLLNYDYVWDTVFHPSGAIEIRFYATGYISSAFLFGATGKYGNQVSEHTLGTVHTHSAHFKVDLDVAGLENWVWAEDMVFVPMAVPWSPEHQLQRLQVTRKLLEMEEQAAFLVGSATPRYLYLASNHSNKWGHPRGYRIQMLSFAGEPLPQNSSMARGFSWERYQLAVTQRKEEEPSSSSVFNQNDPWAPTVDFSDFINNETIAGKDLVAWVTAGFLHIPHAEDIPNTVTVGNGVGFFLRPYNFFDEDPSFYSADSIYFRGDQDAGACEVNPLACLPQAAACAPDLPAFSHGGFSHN
# Assay: Human Semicarbazide-Sensitive Amine Oxidase (SSAO) Assay
# Assay type: biochemical
# Details: recombinant enzyme, 30 minutes preincubation at 37° C., benzylamine substrate, Amplex Ultra Red/HRP fluorescence
# Method in brief: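 Recombinant human SSAO/VAP-1 (2.5 μg/ml working stock in 50 mM HEPES) preincubated with compound 30 min at 37 °C over a 6-10 point CRC. Benzylamine substrate starts the reaction. H2O2 read kinetically over 30-120 min via Amplex Ultra Red/HRP fluorescence (ex 544/em 590 nm) to derive IC50.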
row,SMILES,IC50
1,"NC/C(=C\F)COc1ccc(C23CCC(C(=O)N4CCC(OCCO)CC4)(CC2)CC3)cc1 [Compound 2.85, (E)-(4-(4-((2-(aminomethyl)-3-fluoroallyl)oxy)phenyl)bicyclo [2.2.2]octan-1-yl)(4-(2-hydroxyethoxy)piperidin-1-yl)methanone]",≤ 10 nM
2,"COCC1(NC(=O)C23CCC(c4ccc(OC/C(=C/F)CN)cc4)(CC2)CC3)CCOCC1 [Compound 2.86, (E)-4-(4-((2-(aminomethyl)-3-fluoroallyl)oxy)phenyl)-N-(4-(methoxymethyl)tetrahydro-2H-pyran-4-yl)bicyclo[2.2.2]octane-1-carboxamide]",≤ 10 nM
3,"CC1(NC(=O)C23CCC(c4ccc(OC/C(=C/F)CN)cc4)(CC2)CC3)CCOC1 (stereo not shown) [Compound 2.87, (E)-4-(4-((2-(aminomethyl)-3-fluoroallyl)oxy)phenyl)-N-(3-methyltetrahydrofuran-3-yl)bicyclo[2.2.2]octane-1-carboxamide]",≤ 10 nM
4,"CC(C)CNC(=O)C12CCC(c3ccc(OC/C(=C/F)CN)cc3)(CC1)CC2 [Compound 2.88, (E)-4-(4-((2-(aminomethyl)-3-fluoroallyl)oxy)phenyl)-N-isobutylbicyclo[2.2.2]octane-1-carboxamide]",≤ 10 nM
5,"CC(C)(O)CCNC(=O)C12CCC(c3ccc(OC/C(=C/F)CN)cc3)(CC1)CC2 [Compound 2.89, (E)-4-(4-((2-(aminomethyl)-3-fluoroallyl)oxy)phenyl)-N-(3-hydroxy-3-methylbutyl)bicyclo[2.2.2] octane-1-carboxamide]",≤ 10 nM
6,"COCCOC1CN(C(=O)C23CCC(c4ccc(OC/C(=C/F)CN)cc4)(CC2)CC3)C1 [Compound 2.90, (E)-(4-(4-((2-(aminomethyl)-3-fluoroallyl)oxy)phenyl)bicyclo [2.2.2]octan-1-yl)(3-(2-methoxyethoxy)azetidin-1-yl)methanone]",≤ 10 nM
7,"COC1CC(NC(=O)C23CCC(c4ccc(OC/C(=C/F)CN)cc4)(CC2)CC3)C1 (stereo not shown) [Compound 2.91, 4-(4-(((E)-2-(aminomethyl)-3-fluoroallyl)oxy)phenyl)-N-((1r,3r)-3-methoxycyclobutyl)bicyclo [2.2.2]octane-1-carboxamide]",≤ 10 nM
8,"COC1(CNC(=O)C23CCC(c4ccc(OC/C(=C/F)CN)cc4)(CC2)CC3)CCC1 [Compound 2.92, (E)-4-(4-((2-(aminomethyl)-3-fluoroallyl)oxy)phenyl)-N-((1-methoxycyclobutyl)methyl) bicyclo[2.2.2]octane-1-carboxamide]",≤ 10 nM
9,"NC/C(=C\F)COc1ccc(C23CCC(C(=O)NC45CC(O)(C4)C5)(CC2)CC3)cc1 [Compound 2.93, (E)-4-(4-((2-(aminomethyl)-3-fluoroallyl)oxy)phenyl)-N-(3-hydroxybicyclo[1.1.1]pentan-1-yl)bicyclo[2.2.2]octane-1-carboxamide]",≤ 10 nM
10,"NC/C(=C\F)COc1ccc(C23CCC(C(=O)N4CC(OC(F)(F)F)C4)(CC2)CC3)cc1 [Compound 2.94, (E)-(4-(4-((2-(aminomethyl)-3-fluoroallyl)oxy)phenyl)bicyclo [2.2.2]octan-1-yl)(3-(trifluoromethoxy)azetidin-1-yl)methanone]",≤ 10 nM
11,"CO[C@H]1C[C@@H](NC(=O)C23CCC(c4ccc(OC/C(=C/F)CN)cc4)(CC2)CC3)C1 [Compound 2.95, 4-(4-(((E)-2-(Aminomethyl)-3-fluoroallyl)oxy)phenyl)-N-(cis-3-methoxycyclobutyl)bicyclo[2.2.2]octane-1-carboxamide Hydrochloride]",≤ 10 nM
12,"NC/C(=C\F)COc1ccc(C23CCC(C(=O)NCC4(O)CCC4)(CC2)CC3)cc1 [Compound 2.96, (E)-4-(4-((2-(aminomethyl)-3-fluoroallyl)oxy)phenyl)-N-((1-hydroxycyclobutyl)methyl) bicyclo[2.2.2]octane-1-carboxamide]",≤ 10 nM
13,"COC(C)(C)CNC(=O)C12CCC(c3ccc(OC/C(=C/F)CN)cc3)(CC1)CC2 [Compound 2.97, (E)-4-(4-((2-(aminomethyl)-3-fluoroallyl)oxy)phenyl)-N-(2-methoxy-2-methylpropyl)bicyclo[2.2.2] octane-1-carboxamide]",≤ 10 nM
